Experimental data taken from publication PMC6825211 (Nature Communications, 2019).
“And” between values parts separate entries of the source, which are not always exact repeats. Identical values can stand only once.

Tests used:
MEK1 = MEK1 (Homo sapiens, UniProt Q02750); experiment: Nanosyn kinase profiling, mobility shift assay; type: biochemical
[1] = tested on: panel of 50 serine, threonine, and tyrosine kinases; experiment: Nanosyn panel of 50 biochemical kinase assays; conditions: 10 µM, of 50 kinases
INS-1E cells = experiment: Caspase-3 activation Nucview assay, TNFα/IFNγ with 33 mM glucose; type: cell-based, rat; conditions: up to 6.7 µM neratinib
MLD–STZ C57BL/6J mice = experiment: MLD–STZ model: insulin secretion during ipGTT (stimulatory index); type: in vivo, mouse; conditions: glucose-stimulated, i.p.
Method: C57Bl/6J mice were injected with 40 mg/kg streptozotocin or citrate buffer for 5 consecutive days. […] In d, basal glucose values were normalized to 100%. e Insulin secretion measured from retro-orbital blood draw during an ipGTT measured before (0 min) and 15 min after glucose injection; data are expressed as the ratio of secreted insulin at 15 min/0 min (stimulatory index). f The ratio of secreted insulin and glucose is calculated at fed state. g–i Mice were killed at day 35. g β-cell mass (given as percentage of the whole pancreatic section from ten sections spanning the width of the pancreas) and quantitative analyses from triple staining for h TUNEL or i Ki67, insulin, and DAPI expressed as percentage of TUNEL- or Ki67-positive β-cells ±SEM. An average number of 2331 (h), or 26369 (i) β-cells were counted. n = 9 mice/group for (a); n = 4–12 for (b); n = 5–15 for (c) and (d); n = 12–19 for (e); n = 8–14 for (f); n = 4–9 for (g); n = 4–11 for (h); and n = 6–11 mice/groupfor (i); all from three independent experiments).
For intraperitoneal glucose tolerance tests, mice were fasted 12 h overnight and injected i.p. with glucose (40%; B.Braun, Melsungen, Germany) at a dose of 1 g/kg body weight. […] Insulin secretion was measured before (0 min) and after (15 and 30 min) i.p. injection of glucose (2 g/kg) and measured by using ultrasensitive mouse Elisa kit (ALPCO Diagnostics, Salem, NH).

[2] = tested on: obese diabetic Lepr db/db mice; experiment: db/db model: insulin secretion during ipGTT; type: in vivo, mouse; design: GSIS: unit not given here
Description: Data are representative of six mice per group (n = 6 for (a–f)). g–j Mice were killed at day 31. g β-cell mass (given as percentage of the whole pancreatic section from ten sections spanning the width of the pancreas; n = 5 mice/group) and quantitative analyses from triple stainings for (h) TUNEL, (i) Ki67, (j) pHH3, and (k) nuclear PDX1 expression, insulin, and DAPI expressed as percentage of TUNEL-, Ki67-, pHH3-, or nuclear PDX1-positive β-cells ± SEM. An average number of 13667 (h), 5937 (i), 7108 (j), or 4330 (k) β-cells were counted from n = 3–5 (h, i, k) or n = 5–6 (j) mice/group.
For intraperitoneal glucose tolerance tests, mice were fasted 12 h overnight and injected i.p. with glucose (40%; B.Braun, Melsungen, Germany) at a dose of 1 g/kg body weight. Blood samples were obtained at time points 0, 15, 30, 60, 90, and 120 min for glucose measurements by using a Glucometer. For i.p. insulin tolerance tests, mice were injected with 0.75 U/kg body weight recombinant human insulin (Novolin, Novo Nordisk) after 4–5-h fasting, and glucose concentration was determined with the Glucometer. Insulin secretion was measured before (0 min) and after (15 and 30 min) i.p. injection of glucose (2 g/kg) and measured by using ultrasensitive mouse Elisa kit (ALPCO Diagnostics, Salem, NH).

[3] = tested on: obese diabetic Lepr db/db mice; experiment: db/db model: β-cell proliferation (pHH3); type: in vivo, mouse; conditions: dbdb mice
[4] = tested on: isolated islets from db/db mice; experiment: Ex vivo β-cell apoptosis (TUNEL) in isolated db/db islets; type: cell-based, mouse; conditions: for TUNEL%: dbdb islets with Nera
LCK = LCK (Homo sapiens, UniProt P06239); experiment: biochemical; conditions: read-out: % inhibition by neratinib
MST2 = MST2 (Homo sapiens, UniProt Q13188); experiment: biochemical; conditions: read-out: % inhibition by neratinib
PAK2 = PAK2 (Homo sapiens, UniProt Q13177); experiment: biochemical; conditions: read-out: % inhibition by neratinib
[5] = Pharmacokinetic study, single i.p. dose; conditions: for AUC(0-inf): AUCINF
CDK2 = CDK2 (Homo sapiens, UniProt P24941); experiment: Nanosyn kinase profiling, mobility shift assay; conditions: read-out: % inhibition by neratinib
CSK = CSK (Homo sapiens, UniProt P41240); experiment: Nanosyn kinase profiling, mobility shift assay; conditions: read-out: % inhibition by neratinib
DYRK1A = DYRK1A (Homo sapiens, UniProt Q13627); experiment: Nanosyn kinase profiling, mobility shift assay; conditions: read-out: % inhibition by neratinib
EPH-A2 = EPH-A2 (Homo sapiens, UniProt P29317); experiment: Nanosyn kinase profiling, mobility shift assay; conditions: read-out: % inhibition by neratinib
FAK = FAK (Homo sapiens, UniProt Q05397); experiment: Nanosyn kinase profiling, mobility shift assay; conditions: read-out: % inhibition by neratinib
PDGFR-ALPHA = PDGFR-ALPHA (Homo sapiens, UniProt P16234); experiment: Nanosyn kinase profiling, mobility shift assay; conditions: read-out: % inhibition by neratinib
PIM-1-KINASE = PIM-1-KINASE (Homo sapiens, UniProt P11309); experiment: Nanosyn kinase profiling, mobility shift assay; conditions: read-out: % inhibition by neratinib
SYK = SYK (Homo sapiens, UniProt P43405); experiment: Nanosyn kinase profiling, mobility shift assay; conditions: read-out: % inhibition by neratinib
[6] = 5 mg/kg IP, individual animals 1-3

Sequence of MEK1 (Q02750 whole entry, species assumed): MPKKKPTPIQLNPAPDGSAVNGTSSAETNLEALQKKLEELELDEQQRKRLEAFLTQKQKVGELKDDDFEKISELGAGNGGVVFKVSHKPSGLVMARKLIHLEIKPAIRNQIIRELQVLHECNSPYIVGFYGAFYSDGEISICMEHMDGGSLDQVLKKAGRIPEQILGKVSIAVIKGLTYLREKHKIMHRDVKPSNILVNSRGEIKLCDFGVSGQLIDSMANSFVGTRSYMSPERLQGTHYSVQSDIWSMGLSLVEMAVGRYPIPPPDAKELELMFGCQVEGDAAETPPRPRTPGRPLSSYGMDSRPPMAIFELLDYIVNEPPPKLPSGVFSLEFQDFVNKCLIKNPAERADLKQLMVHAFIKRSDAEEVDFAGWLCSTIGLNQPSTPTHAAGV
Sequence of LCK (P06239 whole entry, species assumed): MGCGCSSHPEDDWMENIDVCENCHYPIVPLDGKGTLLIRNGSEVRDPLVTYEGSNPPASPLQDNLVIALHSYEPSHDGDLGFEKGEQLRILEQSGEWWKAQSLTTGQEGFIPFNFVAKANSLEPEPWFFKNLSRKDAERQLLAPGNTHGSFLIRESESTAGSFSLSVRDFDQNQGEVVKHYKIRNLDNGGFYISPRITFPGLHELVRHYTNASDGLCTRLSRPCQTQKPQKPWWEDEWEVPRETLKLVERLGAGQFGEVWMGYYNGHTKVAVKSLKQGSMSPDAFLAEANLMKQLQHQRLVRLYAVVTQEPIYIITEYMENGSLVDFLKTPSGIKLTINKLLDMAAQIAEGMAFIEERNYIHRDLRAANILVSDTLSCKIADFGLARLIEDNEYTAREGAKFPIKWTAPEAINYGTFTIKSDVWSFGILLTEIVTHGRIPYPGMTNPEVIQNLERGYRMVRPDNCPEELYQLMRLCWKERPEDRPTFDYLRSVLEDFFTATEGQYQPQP
Sequence of PIM-1-KINASE (P11309 whole entry): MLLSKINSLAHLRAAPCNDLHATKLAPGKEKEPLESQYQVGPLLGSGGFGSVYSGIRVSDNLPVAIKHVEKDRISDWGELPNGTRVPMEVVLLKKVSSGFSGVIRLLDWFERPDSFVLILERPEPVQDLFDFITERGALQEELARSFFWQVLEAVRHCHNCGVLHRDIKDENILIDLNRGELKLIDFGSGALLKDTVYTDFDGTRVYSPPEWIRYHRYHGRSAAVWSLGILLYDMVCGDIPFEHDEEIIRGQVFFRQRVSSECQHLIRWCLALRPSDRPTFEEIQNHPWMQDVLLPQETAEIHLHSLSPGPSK
Sequence of CSK (P41240 whole entry): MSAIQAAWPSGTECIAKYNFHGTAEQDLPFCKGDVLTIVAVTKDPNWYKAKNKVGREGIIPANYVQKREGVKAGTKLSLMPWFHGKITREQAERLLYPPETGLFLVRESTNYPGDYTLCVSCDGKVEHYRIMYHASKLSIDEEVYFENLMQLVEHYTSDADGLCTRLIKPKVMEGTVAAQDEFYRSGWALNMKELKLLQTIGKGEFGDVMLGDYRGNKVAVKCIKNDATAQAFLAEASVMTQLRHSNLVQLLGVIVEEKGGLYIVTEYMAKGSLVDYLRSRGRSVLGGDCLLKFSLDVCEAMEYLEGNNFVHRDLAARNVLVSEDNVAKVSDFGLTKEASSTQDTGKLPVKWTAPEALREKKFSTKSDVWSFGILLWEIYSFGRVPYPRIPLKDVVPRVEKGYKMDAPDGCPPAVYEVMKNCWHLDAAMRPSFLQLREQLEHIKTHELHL
Sequence of FAK (Q05397 whole entry): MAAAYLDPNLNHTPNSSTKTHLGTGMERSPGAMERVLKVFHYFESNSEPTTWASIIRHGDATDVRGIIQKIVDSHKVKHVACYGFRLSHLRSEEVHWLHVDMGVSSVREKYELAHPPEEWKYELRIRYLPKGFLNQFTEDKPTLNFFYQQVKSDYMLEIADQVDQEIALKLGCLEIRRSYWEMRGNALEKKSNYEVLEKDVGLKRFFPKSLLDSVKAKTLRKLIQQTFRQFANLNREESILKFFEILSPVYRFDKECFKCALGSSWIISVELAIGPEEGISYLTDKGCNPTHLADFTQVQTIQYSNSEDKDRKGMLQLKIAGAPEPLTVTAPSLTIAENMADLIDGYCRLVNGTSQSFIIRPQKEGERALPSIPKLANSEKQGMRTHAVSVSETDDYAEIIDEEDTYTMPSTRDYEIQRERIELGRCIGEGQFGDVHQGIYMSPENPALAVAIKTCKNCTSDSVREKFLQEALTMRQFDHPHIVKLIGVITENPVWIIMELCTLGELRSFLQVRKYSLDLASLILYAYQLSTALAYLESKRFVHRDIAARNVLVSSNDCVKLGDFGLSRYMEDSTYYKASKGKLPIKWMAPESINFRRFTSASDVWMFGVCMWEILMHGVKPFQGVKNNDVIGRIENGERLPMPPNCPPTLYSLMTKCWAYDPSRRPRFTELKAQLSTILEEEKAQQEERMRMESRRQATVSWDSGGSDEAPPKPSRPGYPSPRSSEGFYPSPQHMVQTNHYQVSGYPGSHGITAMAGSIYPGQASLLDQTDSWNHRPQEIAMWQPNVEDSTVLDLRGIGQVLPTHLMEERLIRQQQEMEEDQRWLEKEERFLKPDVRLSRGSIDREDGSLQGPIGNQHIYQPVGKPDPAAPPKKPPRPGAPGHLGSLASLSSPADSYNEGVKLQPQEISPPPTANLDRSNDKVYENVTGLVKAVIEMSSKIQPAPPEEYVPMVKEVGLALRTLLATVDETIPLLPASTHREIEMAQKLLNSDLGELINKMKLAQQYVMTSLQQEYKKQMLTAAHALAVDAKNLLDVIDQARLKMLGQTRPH
Sequence of EPH-A2 (P29317 24-976): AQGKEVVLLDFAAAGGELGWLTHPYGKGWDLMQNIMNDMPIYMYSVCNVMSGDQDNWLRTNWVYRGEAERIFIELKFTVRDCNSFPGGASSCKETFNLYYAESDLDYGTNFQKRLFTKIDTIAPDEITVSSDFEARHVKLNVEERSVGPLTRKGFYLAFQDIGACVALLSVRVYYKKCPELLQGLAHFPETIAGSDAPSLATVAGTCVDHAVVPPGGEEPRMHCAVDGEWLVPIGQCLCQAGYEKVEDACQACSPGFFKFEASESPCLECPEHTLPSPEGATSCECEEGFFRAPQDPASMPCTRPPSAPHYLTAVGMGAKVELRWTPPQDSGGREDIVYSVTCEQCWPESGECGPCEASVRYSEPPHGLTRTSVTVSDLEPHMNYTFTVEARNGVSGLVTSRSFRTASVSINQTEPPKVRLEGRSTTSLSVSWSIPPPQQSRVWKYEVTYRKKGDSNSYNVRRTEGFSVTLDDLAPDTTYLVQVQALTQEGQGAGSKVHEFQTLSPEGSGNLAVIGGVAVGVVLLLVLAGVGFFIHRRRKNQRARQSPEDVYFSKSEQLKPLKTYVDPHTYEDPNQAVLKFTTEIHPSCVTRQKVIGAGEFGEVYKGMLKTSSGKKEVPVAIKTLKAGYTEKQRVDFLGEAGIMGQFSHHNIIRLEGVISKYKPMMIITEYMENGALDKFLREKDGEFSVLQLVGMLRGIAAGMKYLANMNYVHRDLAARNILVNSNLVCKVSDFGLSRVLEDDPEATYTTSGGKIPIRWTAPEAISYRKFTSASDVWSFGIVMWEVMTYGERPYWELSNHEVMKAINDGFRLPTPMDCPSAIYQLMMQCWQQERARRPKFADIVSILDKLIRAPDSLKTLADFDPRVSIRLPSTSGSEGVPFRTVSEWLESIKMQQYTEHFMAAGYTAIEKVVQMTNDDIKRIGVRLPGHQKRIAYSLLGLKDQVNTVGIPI
Sequence of MST2 (Q13188 whole entry, species assumed): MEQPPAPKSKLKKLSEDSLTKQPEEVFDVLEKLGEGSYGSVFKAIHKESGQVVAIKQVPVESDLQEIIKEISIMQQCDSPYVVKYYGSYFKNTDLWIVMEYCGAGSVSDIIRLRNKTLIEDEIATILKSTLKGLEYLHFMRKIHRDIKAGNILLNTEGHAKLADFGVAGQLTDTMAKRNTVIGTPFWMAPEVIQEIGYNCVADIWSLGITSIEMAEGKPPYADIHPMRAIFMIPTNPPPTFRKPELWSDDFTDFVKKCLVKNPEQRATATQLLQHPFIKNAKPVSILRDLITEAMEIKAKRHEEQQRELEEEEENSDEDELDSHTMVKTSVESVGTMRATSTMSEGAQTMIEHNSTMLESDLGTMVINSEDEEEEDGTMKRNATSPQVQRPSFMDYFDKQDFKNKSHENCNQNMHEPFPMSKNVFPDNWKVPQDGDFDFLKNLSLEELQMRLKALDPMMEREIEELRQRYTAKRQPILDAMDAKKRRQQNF
Sequence of PAK2 (Q13177 whole entry, species assumed): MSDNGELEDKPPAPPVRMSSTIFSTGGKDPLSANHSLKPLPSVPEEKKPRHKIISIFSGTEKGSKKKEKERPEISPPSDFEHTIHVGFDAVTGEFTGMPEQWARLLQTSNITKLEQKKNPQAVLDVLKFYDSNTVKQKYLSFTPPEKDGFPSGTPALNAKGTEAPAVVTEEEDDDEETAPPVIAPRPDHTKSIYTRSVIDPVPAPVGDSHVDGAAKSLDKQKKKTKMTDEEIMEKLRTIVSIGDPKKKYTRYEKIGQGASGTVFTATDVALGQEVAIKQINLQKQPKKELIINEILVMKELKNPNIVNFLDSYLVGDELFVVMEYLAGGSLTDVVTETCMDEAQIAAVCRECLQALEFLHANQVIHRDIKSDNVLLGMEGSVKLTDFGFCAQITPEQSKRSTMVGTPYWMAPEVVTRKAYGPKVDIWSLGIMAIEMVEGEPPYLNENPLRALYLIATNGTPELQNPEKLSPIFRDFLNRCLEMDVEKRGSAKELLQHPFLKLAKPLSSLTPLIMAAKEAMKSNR

For CCOc1cc2ncc(C#N)c(Nc3ccc(OCc4ccccn4)c(Cl)c3)c2cc1NC(=O)/C=C/CN(C)C [neratinib], the IC50 (MEK1; 12 points dose response) was 1490 nM, the inhibition at 10 µM (MEK1; read-out: % inhibition by neratinib) was 73% and the “number of kinases with >50% of inhibition” value [1] was 16. For the same compound, the “caspase-3 activation induced by TNFα/IFNγ and high glucose” value (INS-1E cells) was “largely inhibited”, the “impaired insulin secretion in STZ-treated mice” value (MLD–STZ C57BL/6J mice) was “significantly improved” and the insulin secretion ([2]; db/db) was “enhanced insulin secretion”. For the same compound, the GSIS ([2]; time after glucose injection 0, MEAN) was 7.868, the GSIS ([2]; time after glucose injection 0, individual mice) was 7.6163 and 7.7481 and 3.303 and 9.154 and 8.9273 and 10.458 and the GSIS ([2]; time after glucose injection 15, MEAN) was 11.2434. The GSIS ([2]; time after glucose injection 15, individual mice) was 17.086 and 7.6058 and 10.292 and 7.1842 and 8.1355 and 17.157, the pHH3 %/ mouse ([3]; Mean) was 0.4112% and the pHH3 %/ mouse ([3]; individual mice) was 0.7567% and 0.6289% and 0.2824% and 0.1109% and 0.2748% and 0.4135%. For the same compound, the “β-cell survival in db/db islets ex vivo” value ([4]; 10 μM, 24 h) was “fully restored β-cell survival”, the TUNEL% ([4]; MEAN) was 1.158% and the TUNEL% ([4]; individual replicates) was 1.875% and 1.213% and 0.7124% and 0.9025% and 0.3448% and 1.9025%. It also gave an inhibition at 10 µM (LCK) of 96%, an inhibition at 10 µM (MST2) of 97% and an inhibition at 10 µM (PAK2) of 101%. The Cl ([5]; 5 mg/kg IP, AVERAGE n=3) was 263.8 mL/min/kg, the VD ([5]; 5 mg/kg IP, AVERAGE n=3) was 58.9 L/kg and the AUC0-24 [5, 6] was 1.9671 µM·h and 2.1252 µM·h. The AUCINF [5, 6] was 2.1537 µM·h and 2.2985 µM·h, the AUCLAST [5, 6] was 1.9671 µM·h and 2.1252 µM·h and the Cl [5, 6] was 253.1 mL/min/kg and 277.9 mL/min/kg and 260.4 mL/min/kg. The Cmax [5, 6] was 557 nM and 623 nM, the MRT [5, 6] was 2.3 h and the Tmax [5, 6] was 1.0 h. The VD [5, 6] was 86.9 L/kg and 46.7 L/kg and 43.1 L/kg, the t1/2 [5, 6] was 4.0 hr and 1.9 hr (2×) and the maximum concentration ([5]; 5 mg/kg single i.p. dose, plasma, fasted mice) was 306 ng/mL. It also gave an AUC(0-t) ([5]; mouse, plasma, ip, 5 mg/kg, AUC0-24, 5 mg/kg IP, AVERAGE n=3) of 1.9 µM·h, an AUC(0-t) ([5]; mouse, plasma, ip, 5 mg/kg, AUC0-24, 5 mg/kg IP, individual animals 1-3) of 1.62 µM·h and an AUC(0-inf) ([5]; mouse, plasma, ip, 5 mg/kg, 5 mg/kg IP, AVERAGE n=3) of 2.27 µM·h. For the same compound, the AUC(0-inf) ([5]; mouse, plasma, ip, 5 mg/kg, 5 mg/kg IP, individual animals 1-3) was 2.36 µM·h, the AUC(0-t) ([5]; mouse, plasma, ip, 5 mg/kg, AUCLAST, 5 mg/kg IP, AVERAGE n=3) was 1.9 µM·h and the AUC(0-t) ([5]; mouse, plasma, ip, 5 mg/kg, AUCLAST, 5 mg/kg IP, individual animals 1-3) was 1.62 µM·h. It also gave a Cmax ([5]; mouse, plasma, ip, 5 mg/kg, Cmax, 5 mg/kg IP, AVERAGE n=3) of 549 nM, a Cmax ([5]; mouse, plasma, ip, 5 mg/kg, Cmax, 5 mg/kg IP, individual animals 1-3) of 469 nM and an MRT ([5]; mouse, plasma, ip, 5 mg/kg, MRT, 5 mg/kg IP, AVERAGE n=3) of 2.4 h. It also gave an MRT ([5]; mouse, plasma, ip, 5 mg/kg, MRT, 5 mg/kg IP, individual animals 1-3) of 2.7 h, a Tmax ([5]; mouse, plasma, ip, 5 mg/kg, Tmax, 5 mg/kg IP, AVERAGE n=3) of 0.7 h and a Tmax ([5]; mouse, plasma, ip, 5 mg/kg, Tmax, 5 mg/kg IP, individual animals 1-3) of 0.5 h. For the same compound, the half-life ([5]; mouse, plasma, ip, 5 mg/kg, t1/2, 5 mg/kg IP, AVERAGE n=3) was 2.6 h, the Tmax ([5]; mouse, plasma, ip, 5 mg/kg, time of maximum concentration post dosing, 5 mg/kg single i.p. dose, average) was 0.67 h and the inhibition at 10 µM (CDK2) was 9%. It also gave an inhibition at 10 µM (CSK) of 95%, an inhibition at 10 µM (DYRK1A) of 3% and an inhibition at 10 µM (EPH-A2) of 51%. It also gave an inhibition at 10 µM (FAK) of 8%, an inhibition at 10 µM (PDGFR-ALPHA) of 31% and an inhibition at 10 µM (PIM-1-KINASE) of 13%. For the same compound, the inhibition at 10 µM (SYK) was -14%.
